Laboratory results taken from patent publication US6846907B1, “Osteoporosis treatment” (Hamilton Civic Hospitals Research Centre, priority 1999, dated 2005).
“Also recorded” adds a separate entry of the source. One block for each molecule: values may come before it. Ends that are not written are not given here.

What was measured:
Interleukin-11 = assay: cell-based or functional assay
IL-11/IL-11R interaction = assay: Inhibition of the productive interaction of IL-11 with IL-11R by IL-11 binding peptides
[1] = test system: cocultures of murine bone marrow and calvaria cells; assay: TRAP assay: IL-11 induced osteoclast formation in cocultures of murine bone marrow and calvaria cells; format: cell-based; settings: for IL-11 induced osteoclast formation (TRAP+ multinucleated cells): 20 ng/ml IL-11, 10, 100 or 1000 ng/ml test substance, 9 days, FIGS. 7A, 7B, 8, 12
Text: Particular IL-11 antagonists useful in the treatment of IL-11 related bone density disorders may be identified using the TRAP assay and the bone nodule formation assay, discussed herein. The TRAP assay is known in the art and involves co-culturing murine calvarla (osteoblasts) and bone marrow cells in vitro and then quantifying osteoclast formation by counting the number of tartrate-resistant acid phosphatase positive (TRAP+) multinucleated cells. […] These potential IL-11 antagonists may be screened to determine if they are IL-11 antagonists by examining their activity in the TRAP assay and the bone nodule formation assay.
Post menopausal osteoporosis is characterized by a general reduction in bone mass, resulting from an imbalance between osteoblast-mediated bone formation and bone resorption by the osteoclast. While the osteoblast is responsible for the formation of new bone or osteoid, it also appears to control the activation and/or number of osteoclasts by releasing cytokines such as IL-6 or IL-11. This process can be examined using a “TRAP assay” which involves co-culturing murine calvaria (osteoblasts) and bone marrow cells in vitro and then quantifying osteoclast formation by counting the number of tartrate-resistant acid phosphatase positive (TRAP+) multinucleated cells. Ovariectomized (OVX) rats or mice provide a satisfactory animal model for postmenopausal women in studies of osteoporosis.
The effect of IL-11 on osteoclast development in cocultures of murine bone marrow and calvaria cells was examined using standard techniques. Briefly, bone marrow cultures were established by removing femurs from mice, dissecting away soft tissue, and removing the distal and proximal ends of the femur. The marrow was then flushed with 5 ml α MEM and 1.0% penicilin-streptomycin using a 25 gauge needle. The bone marrow cells were then suspended to a concentration of 5,000,000 cells per ml in α MEM containing 15% fetal calf serum (charcoal treated) to remove cells adherent to plastic. The non-adherent cells were then co cultured for an additional 9 days with murine calvaria cells prior to being fixed and stained for TRAPase activity (stains were obtained from Sigma Chemical Co., St. Louis, Mo.). TRAP+MNC's have the ability to form resorption pits in smooth cortical bone slices and are therefore considered to be of osteoclast origin.
The effect of IL-11 on osteoclast development in cocultures of murine bone marrow and calvaria cells was examined by maintaining these cultures in the presence of various specific concentrations of IL-11 for 9 days. After 9 days of culture, the cells were stained for TRAPase activity and the number of multinucleated TRAP+cells were determined. The results of this experiment are depicted in Table I. Data are expressed as mean +/−SEM. […]

[2] = test system: murine calvaria cell culture; assay: Bone nodule formation assay in the presence of exogenous IL-11 and IL-11 antagonists; format: cell-based; settings: 20 ng/ml exogenous IL-11; for reversal of the inhibitory effect of IL-11 on bone nodule formation: 21 days, FIGS. 9, 10
Method: Bone nodule formation was measured using standard techniques. Briefly, calvaria cell cultures were established as follows: Calvaria cells were obtained from 2 day old fetal mouse calavariae by collagenase digestion. The cells were then cultured for 21 days in the presence of 0.5 mM ascorbic acid and 10 mM β-glycerophosphate. Where indicated in the experimental descriptions below, IL-11 and the mutant IL-11 receptor of experiment 4 were added to the culture at day 0 and every 3-4 days thereafter until the removal of the medium for analysis. Bone nodule formation was quantified by counting alizarin red stain nodules under a light microscope.
The effect of a gp130 binding region mutant soluble IL-11 receptor of type described in Experiment 4 and produced by the process of Experiment 3 on bone nodule formation in the presence of 20 ng/ml of exogenous IL-11 was assessed, and the results are depicted in FIG. 9. […] Thus, IL-11 antagonists such as mutant IL-11Rs can enhance bone nodule formation.
It was desired to determine if bone nodule formation could be modulated in a manner similar to that reported in Example 6 using an IL-11 antagonist peptide such as the one used in Example 5. To achieve this, the procedure of Example 6 was repeated, with the substitution of peptide 1 for the solubilized mutant IL-11 receptor. The results of this experiment are depicted in FIG. 10.

[3] = test system: murine calvaria cells (primary osteoblasts); assay: Bone nodule formation assay, effect of IL-11; format: cell-based; settings: various concentrations of IL-11; 250 μM ascorbic acid, 10 mM β-glycerol phosphate; FIG. 5
Method: The effect of IL-11 on bone formation was examined using the bone nodule formation assay. Murine calvaria cells (primary osteoblasts) were cultured in the presence of 250 μM ascorbic add and 10 mM β-glycerol phosphate, and in the presence of various amounts of interleukin-11. After culturing, the culture media were plated out and the number of bone nodules per plate was counted. The results are shown on the accompanying FIG. 5, where number of bone nodules per plate is plotted as the vertical axis, with the different concentrations of interleukin on the horizontal axis, not to scale. Each bar represents the result on experiments containing a different concentration of interleukin-11, as noted on FIG. 5.

- concentration allowing enhanced bone nodule formation in the presence of 20 ng/ml exogenous IL-11 (Interleukin-11): 10 ng/mL
Molecule: H289→Y289 mutant solubilized IL-11 receptor (from UniProt Q14626 24-370)

Molecule: RRLRASW [SEQ ID NO. 5]
- productive interaction of IL-11 with IL-11R (IL-11/IL-11R interaction): capable of inhibiting the productive interaction of IL-11 and IL-11R

Molecule: RRLRASWTYPASWPCQPHFL [peptide 1]
- IL-11 induced osteoclast formation (TRAP+ multinucleated cells) [1]: inhibits IL-11 induced osteoclast formation
- productive interaction of IL-11 with IL-11R (IL-11/IL-11R interaction): binds IL-11 and prevents its productive interaction with IL-11R
- reversal of the inhibitory effect of IL-11 on bone nodule formation [2]: able to reduce the inhibitory effects
- bone nodule formation relative to control samples ([2]; 50 ng/ml peptide, FIG. 10): allowed bone nodule formation in excess of that seen in the control samples

Molecule: Ser Ile Leu Arg Pro Asp Pro Pro Gin Gly Leu Arg Val Glu Ser Val Pro Gly Tyr Pro (SILRPDPPQGLRVESVPGYP; listed as Homo sapiens) [SEQ. ID. NO. 6]
- productive interaction of IL-11 with IL-11R (IL-11/IL-11R interaction): has been found to inhibit the productive interaction between IL-11 and IL-11R

Molecule: Thr Tyr Pro Ala Ser Trp Pro Cys Gin Pro His Phe Leu Leu Lys Phe Arg Leu Gln Tyr (TYPASWPCQPHFLLKFRLQY; listed as Homo sapiens) [peptide 2]
- IL-11 induced osteoclast formation (TRAP+ multinucleated cells) [1]: does not
- reversal of the inhibitory effect of IL-11 on bone nodule formation [2]: unable to reduce the inhibition of nodule formation by IL-11

B1: IL-11: cytokine interleukin-11 (protein, UniProt P20809 22-199, looked up)
Interleukin-11: PGPPPGPPRVSPDPRAELDSTVLLTRSLLADTRQLAAQLRDKFPADGDHNLDSLPTLAMSAGALGALQLPGVLTRLRADLLSYLRHVQWLRRAGGSSLKTLEPELGTLQARLDRLLRRLQLLMSRLALPQPPPDPPAPPLAPPSSAWGGIRAAHAILGGLHLTLDWAVRGLLLLKTRL
- osteoclast formation in vitro, effect of IL-11 ([1]; cocultures of murine calvaria and bone marrow cells): potent stimulator of osteoclast formation
- number of bone nodules per plate [3]: number of bone nodules per plate decreased; also recorded: inhibits bone formation

B2: H289→Y289 mutant solubilized IL-11 receptor: gp130 binding region mutant (H289 to Y) recombinant soluble human IL-11 receptor of Example 3 (protein)
chain: SPCPQAWGPPGVQYGQPGRSVKLCCPGVTAGDPVSWFRDGEPKLLQGPDSGLGHELVLAQADSTDEGTYICQTLDGALGGTVTLQLGYPPARPVVSCQAADYENFSCTWSPSQISGLPTRYLTSYRKKTVLGADSQRRSPSTGPWPCPQDPLGAARCVVHGAEFWSQYRINVTEVNPLGASTRLLDVSLQSILRPDPPQGLRVESVPGYPRRLRASWTYPASWPCQPHFLLKFRLQYRPAQHPAWSTVEPAGLEEVITDAVAGLPYAVRVSARDFLDAGTWSTWSPEAWGTPSTGTIPKEIPAWGQLHTQPEVEPQVDSPAPPRPSLQPHPRLLDHRDSVEQVAVLA
modifications: left off: small tags and cut ends
- IL-11 induced osteoclast formation (TRAP+ multinucleated cells) [1]: capable of inhibiting IL-11-induced osteoclast formation
- bone nodule formation relative to the level in the absence of exogenous IL-11 ([2]; 10 ng/ml mutant receptor, FIG. 9): enhanced bone nodule formation
- reversal of the inhibitory effect of IL-11 on bone nodule formation [2]: can reverse the effect of exogenous IL-11
